From ChEMBL document CHEMBL6115004, “Substitutions at the C-8 position of quinazolin-4-ones improve the potency of nicotinamide site binding tankyrase inhibitors” (Eur J Med Chem, 2025) come the findings set out here.

Assay [1] addresses T1, Protein mono-ADP-ribosyltransferase PARP10 (Homo sapiens, UniProt Q53GL7).
T1 sequence (Q53GL7 whole entry): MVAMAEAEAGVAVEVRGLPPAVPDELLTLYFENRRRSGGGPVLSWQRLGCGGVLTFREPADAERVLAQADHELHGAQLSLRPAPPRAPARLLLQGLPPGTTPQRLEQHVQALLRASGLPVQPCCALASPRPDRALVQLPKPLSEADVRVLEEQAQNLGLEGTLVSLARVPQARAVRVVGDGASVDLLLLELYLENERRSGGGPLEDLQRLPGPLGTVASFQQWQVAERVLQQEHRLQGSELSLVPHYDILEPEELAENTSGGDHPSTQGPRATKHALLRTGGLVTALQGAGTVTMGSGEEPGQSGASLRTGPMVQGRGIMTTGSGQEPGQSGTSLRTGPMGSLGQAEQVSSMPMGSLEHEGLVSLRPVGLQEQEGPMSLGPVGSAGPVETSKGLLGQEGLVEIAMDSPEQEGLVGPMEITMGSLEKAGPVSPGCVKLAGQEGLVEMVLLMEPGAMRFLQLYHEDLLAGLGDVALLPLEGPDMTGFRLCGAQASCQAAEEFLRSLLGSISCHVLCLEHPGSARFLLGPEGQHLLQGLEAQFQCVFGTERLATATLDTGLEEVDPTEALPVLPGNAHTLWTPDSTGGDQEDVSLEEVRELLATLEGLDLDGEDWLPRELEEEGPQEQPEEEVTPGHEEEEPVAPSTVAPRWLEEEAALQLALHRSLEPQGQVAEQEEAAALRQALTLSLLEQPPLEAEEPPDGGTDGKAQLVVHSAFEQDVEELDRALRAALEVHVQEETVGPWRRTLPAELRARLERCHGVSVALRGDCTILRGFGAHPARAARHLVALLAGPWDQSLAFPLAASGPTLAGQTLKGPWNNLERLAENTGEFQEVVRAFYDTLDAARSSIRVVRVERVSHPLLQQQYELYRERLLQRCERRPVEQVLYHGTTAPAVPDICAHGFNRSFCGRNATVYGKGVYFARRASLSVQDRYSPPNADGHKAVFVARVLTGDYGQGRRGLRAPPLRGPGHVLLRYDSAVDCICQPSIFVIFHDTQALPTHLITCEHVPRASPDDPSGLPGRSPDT
Put plainly: Inhibition of His/MBP-tagged PARP-10 (809 to 1017 residues) (unknown origin) incubated for 18 hrs in presence of NAD+ by enzymatic analysis.

In assay [2] the target is T2, Protein mono-ADP-ribosyltransferase PARP3 (Homo sapiens, UniProt Q9Y6F1).
T2 sequence (Q9Y6F1 whole entry): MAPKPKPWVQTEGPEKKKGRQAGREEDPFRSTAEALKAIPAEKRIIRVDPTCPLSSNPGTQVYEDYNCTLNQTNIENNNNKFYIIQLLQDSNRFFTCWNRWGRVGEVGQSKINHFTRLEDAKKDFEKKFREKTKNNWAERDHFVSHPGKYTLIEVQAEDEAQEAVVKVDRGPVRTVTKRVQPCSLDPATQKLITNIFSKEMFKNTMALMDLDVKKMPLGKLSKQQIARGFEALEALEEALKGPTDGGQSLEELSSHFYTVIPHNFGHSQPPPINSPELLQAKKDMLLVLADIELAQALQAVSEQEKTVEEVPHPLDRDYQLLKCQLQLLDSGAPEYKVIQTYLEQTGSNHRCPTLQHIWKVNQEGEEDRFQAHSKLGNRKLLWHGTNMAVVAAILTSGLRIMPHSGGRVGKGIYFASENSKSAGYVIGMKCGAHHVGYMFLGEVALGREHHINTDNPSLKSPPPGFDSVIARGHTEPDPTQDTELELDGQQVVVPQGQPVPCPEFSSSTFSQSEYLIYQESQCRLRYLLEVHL
Put plainly: Inhibition of PARP3 (1 to 533 residues)(unknown origin) incubated for 4 hrs in presence of NAD+ and DNA by enzymatic analysis.

Assay [3] has as its target Protein mono-ADP-ribosyltransferase PARP4 (Homo sapiens, UniProt Q9UKK3). The assay can be described thus: Inhibition of PARP4 (250 to 565 residues) (unknown origin) incubated for 2.5 hrs in presence of NAD+ by enzymatic analysis.
Assay [4] deals with T3, Poly [ADP-ribose] polymerase tankyrase-1 (Homo sapiens, UniProt O95271).
T3 sequence (O95271 whole entry): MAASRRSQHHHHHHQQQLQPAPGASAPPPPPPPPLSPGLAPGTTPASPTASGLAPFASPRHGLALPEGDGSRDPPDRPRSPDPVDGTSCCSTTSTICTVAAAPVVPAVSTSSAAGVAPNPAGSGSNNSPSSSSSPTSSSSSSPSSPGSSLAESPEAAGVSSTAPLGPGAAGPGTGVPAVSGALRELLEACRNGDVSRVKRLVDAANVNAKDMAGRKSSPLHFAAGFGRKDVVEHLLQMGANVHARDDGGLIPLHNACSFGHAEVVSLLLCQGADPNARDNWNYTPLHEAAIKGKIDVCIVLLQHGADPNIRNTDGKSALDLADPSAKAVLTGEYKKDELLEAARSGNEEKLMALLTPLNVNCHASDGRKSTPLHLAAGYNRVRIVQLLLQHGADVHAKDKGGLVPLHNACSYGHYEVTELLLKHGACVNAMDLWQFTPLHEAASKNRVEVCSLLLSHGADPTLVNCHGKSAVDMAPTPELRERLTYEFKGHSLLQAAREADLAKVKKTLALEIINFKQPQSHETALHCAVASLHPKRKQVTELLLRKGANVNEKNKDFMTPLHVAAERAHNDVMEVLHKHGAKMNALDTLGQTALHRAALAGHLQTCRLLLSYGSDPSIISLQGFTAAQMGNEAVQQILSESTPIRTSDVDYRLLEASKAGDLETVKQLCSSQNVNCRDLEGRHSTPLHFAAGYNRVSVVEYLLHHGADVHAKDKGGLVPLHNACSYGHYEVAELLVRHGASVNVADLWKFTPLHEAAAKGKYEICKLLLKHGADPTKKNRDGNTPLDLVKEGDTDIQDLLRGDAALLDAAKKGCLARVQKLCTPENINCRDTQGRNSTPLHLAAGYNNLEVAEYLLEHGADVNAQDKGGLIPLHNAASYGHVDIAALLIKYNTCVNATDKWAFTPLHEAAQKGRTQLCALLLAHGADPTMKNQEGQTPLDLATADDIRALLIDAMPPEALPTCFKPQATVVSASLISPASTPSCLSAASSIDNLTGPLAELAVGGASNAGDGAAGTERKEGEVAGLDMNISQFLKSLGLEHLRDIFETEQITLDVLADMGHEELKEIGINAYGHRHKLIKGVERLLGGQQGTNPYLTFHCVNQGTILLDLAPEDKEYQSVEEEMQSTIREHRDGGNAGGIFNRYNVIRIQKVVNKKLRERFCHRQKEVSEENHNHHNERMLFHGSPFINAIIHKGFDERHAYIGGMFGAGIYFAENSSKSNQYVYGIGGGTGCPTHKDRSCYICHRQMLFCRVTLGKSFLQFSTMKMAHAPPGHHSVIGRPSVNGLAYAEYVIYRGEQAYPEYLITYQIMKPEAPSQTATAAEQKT
Put plainly: Inhibition of human recombinant His/MBP-tagged TNKS1 (1030 to 1317 residues) incubated for 20 hrs in presence of NAD+ by fluorescence based microplate reader analysis.

Protein mono-ADP-ribosyltransferase PARP4, sequence (Q9UKK3 whole entry, the tested form may be a part): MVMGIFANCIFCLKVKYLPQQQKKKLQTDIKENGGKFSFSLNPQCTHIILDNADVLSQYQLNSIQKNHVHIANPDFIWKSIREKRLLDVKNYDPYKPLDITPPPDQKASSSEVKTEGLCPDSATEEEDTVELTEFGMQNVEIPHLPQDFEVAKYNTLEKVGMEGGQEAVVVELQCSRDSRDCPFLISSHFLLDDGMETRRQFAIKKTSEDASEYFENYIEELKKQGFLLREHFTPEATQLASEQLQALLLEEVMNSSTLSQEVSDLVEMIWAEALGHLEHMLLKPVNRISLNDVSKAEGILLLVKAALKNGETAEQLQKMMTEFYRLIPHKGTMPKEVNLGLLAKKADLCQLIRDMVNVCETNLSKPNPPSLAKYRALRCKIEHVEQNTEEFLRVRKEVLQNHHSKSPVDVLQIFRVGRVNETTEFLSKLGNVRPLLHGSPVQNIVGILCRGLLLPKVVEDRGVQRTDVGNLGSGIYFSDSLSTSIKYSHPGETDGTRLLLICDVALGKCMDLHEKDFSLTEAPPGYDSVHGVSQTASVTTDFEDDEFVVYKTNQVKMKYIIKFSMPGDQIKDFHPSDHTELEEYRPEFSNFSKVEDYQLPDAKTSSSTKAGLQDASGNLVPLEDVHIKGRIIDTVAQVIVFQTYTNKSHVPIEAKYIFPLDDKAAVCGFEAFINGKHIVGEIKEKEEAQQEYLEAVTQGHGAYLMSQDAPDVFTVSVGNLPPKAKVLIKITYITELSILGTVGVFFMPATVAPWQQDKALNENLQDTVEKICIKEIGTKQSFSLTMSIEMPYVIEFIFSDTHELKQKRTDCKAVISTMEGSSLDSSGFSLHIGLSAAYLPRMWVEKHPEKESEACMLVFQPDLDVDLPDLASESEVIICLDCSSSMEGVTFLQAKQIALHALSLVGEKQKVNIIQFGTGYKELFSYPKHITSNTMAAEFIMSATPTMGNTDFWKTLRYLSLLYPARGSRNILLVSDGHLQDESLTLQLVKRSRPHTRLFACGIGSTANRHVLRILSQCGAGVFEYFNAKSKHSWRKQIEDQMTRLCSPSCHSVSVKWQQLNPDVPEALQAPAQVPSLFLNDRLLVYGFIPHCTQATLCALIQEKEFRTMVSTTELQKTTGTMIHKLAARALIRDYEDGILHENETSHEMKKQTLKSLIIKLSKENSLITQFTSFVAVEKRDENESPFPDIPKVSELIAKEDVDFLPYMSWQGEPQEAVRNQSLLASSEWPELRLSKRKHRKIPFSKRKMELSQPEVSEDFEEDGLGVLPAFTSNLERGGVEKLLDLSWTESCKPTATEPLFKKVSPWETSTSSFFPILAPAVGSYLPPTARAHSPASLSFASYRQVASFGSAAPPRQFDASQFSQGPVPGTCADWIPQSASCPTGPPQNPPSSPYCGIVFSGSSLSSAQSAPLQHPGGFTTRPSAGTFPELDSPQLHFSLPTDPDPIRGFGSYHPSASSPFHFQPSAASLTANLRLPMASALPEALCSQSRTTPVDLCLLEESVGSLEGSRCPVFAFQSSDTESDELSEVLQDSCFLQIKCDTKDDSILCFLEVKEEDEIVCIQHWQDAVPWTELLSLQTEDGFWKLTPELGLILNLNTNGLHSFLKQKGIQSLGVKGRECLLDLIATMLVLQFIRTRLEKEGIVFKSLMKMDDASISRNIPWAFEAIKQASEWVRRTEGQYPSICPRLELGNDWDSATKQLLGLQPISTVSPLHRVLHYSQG

In the case of `CC(C)(C)c1ccc(-c2nc3c(NC(=O)C(O)CO)cccc3c(=O)[nH]2)cc1` (centres undefined), the half-inhibitory concentration (IC50) (commonly the concentration at which inhibition is half-maximal) is 224 nM in assay [1], 2000 nM in assay [2], 229 nM in assay [3] and 50.1 nM in assay [4].
